Patent US11191811B2, “Osteocalcin as a treatment for frailty associated with aging” (THE TRUSTEES OF COLUMBIA UNIVERSITY IN THE CITY OF NEW YORK, priority 2014, dated 2021)
“Also recorded” adds a separate entry of the source.

How the values were obtained:
Format in all cases: in vivo, mouse
WT mice [1] = assay: Endurance exercise on treadmill until exhaustion; details: for muscle function / exercise capacity of young and old WT mice: 3 to 15 month-old WT mice
Method: (§1) First, whether a single intraperitoneal injection of uncarboxylated mouse osteocalcin (osteocalcin) (100 ng/g of body weight) immediately before exercise would improve the exercise capacity of 3 month-old WT mice was tested.
(§2) To determine if osteocalcin has the same ability in older mice, 12 and 15 month-old mice that have low circulating osteocalcin levels were injected prior to running with 500 ng/g of body weight of osteocalcin in order to raise their circulating levels substantially. […] This was due to an increase in the phosphorylation of Akt, AMPK and HSL, as well as in glucose uptake, that occurred to a greater extent in oxidative muscles that express Gprc6a at the highest level, than in glycolytic muscles (FIG. 31C-F). Whether chronic delivery of osteocalcin through mini-pumps (90 ng/hour) for 28 days would increase muscle function in 9 month old mice that have the lowest circulating osteocalcin levels was also tested. […] This improved ability to perform exercise was caused in part by an increase in the expression in muscle of the fatty acid transporter Fatp1 and an activation of the Akt pathway (FIG. 31H-).
For exercise studies, all mice were trained before the tests to run on a treadmill (Harvard apparatus) for three days (10 minutes/day). The day of the test, mice were acclimated to the treadmill for 5 minutes followed by 10 minutes running at a constant speed of 17 cm/s, then a gradual increase in the speed up to 30 cm/s. Next, mice were run until exhaustion as defined by the number of times a mouse fell off to the electric grid during one minute (>15). Measurements of muscle strength were carried out using a grip strength meter (Columbus instruments). Values are expressed as the average of five single measurements, taken one minute apart from each other. For all biochemical and metabolic analyses performed, blood/tissues were collected and processed either at rest or at the end of a 40 min run (30 cm/s).

[2] = Circulating osteocalcin and insulin levels after osteocalcin delivery (ELISA)
Method: as §1, §2
Serum osteocalcin, PINP, CTX, and insulin levels were measured using ELISA assays. Blood glucose level was measured using an Accu-Check glucometer. Urine 3-MHT was measured as previously described (Aranibar et al., 2011, Anal. Biochem. 410:84-91). […]

[3] = Osteocalcin in blood of ICV-infused Osteocalcin−/− mice; details: ICV infusion 10 ng/hour
Method: For osteocalcin delivery to pregnant mice, IP injections (240 ng/day) were performed as soon as a plug was present daily until delivery (E0.5-E18.5). For osteocalcin or leptin infusion in adult Osteocalcin^−/− or ob/ob mice, pumps (Alzet micro-osmotic pump, Model 1002) delivering osteocalcin (300 ng/hr), leptin (50 ng/hr), or vehicle were surgically installed subcutaneously in the backs of 3-month old mice. For the postnatal rescue of cognitive functions in Osteocalcin^−/− mice, osteocalcin (10 ng/hour) or vehicle were delivered intrasubventricularly (icv) as previously described (Ducy et al., 2000, Cell 100:197-207). Leptin and osteocalcin content in sera and tissues were determined by ELISA.
The pharmacological relevance of this ability of osteocalcin to signal in neurons was established by delivering uncarboxylated osteocalcin through intracerebro-ventricular (ICV) infusions (10 ng/hour) in WT and Osteocalcin^−/− mice. The localization of the cannula was verified by administering methylene blue through these pumps. […] This week-long treatment with uncarboxylated osteocalcin corrected the anxiety and depression features noted in Osteocalcin^−/− mice (FIG. 12A-E). Collectively, the results described herein indicate that osteocalcin alleviates anxiety and depression in the mouse by acting directly in the brain.

WT mice [4] = assay: D/LT and EPMT in adult WT mice with ICV infusion
Method: FIG. 14. Osteocalcin improves cognitive function in adult wild-type (WT) mice. Results from dark and light (DLT) and elevated plus maze tests (EPMT) performed in 3-month old WT mice infused ICV with vehicle (PBS) or recombinant uncarboxylated osteocalcin (Ocn) (3, 10, 30 ng/hour) are shown. (A) DLT measuring the latency to enter, the number of entries, and the time spend in lit compartment. (B) EPMT measuring the number of entries into open arms and the time spend in […].
Each mouse was allowed to explore the apparatus for 5 min. Global activity was assessed by measuring the number of entries […] (David et al, 2009, Neuron 62:479-493). Anxiety was assessed by comparing the time spent in the open arms.
The test was performed in a quiet, darkened room. Mice were individually housed in cages containing a handful of bedding from their home cage and acclimated to the room at least 1 h before the test. Naïve mice were placed individually in the testing chamber in the dark compartment. The test was 5 min in duration, and time spent and number of entries in light compartments were recorded a highly trained observer, blind to the genotype of the mice.
To determine if osteocalcin is sufficient to improve cognitive function in adult mice, WT 2-month old mice were implanted with ICV pumps delivering vehicle (PBS), or 3, 10, or 30 ng/hr recombinant uncarboxylated full-length mouse osteocalcin for a period of one month. After one month of infusion, animals were subjected to behavioral testing. […] This improvement is evidenced by an increase in the exploration of the lit compartment and open arms in the D/LT and EMP tests, respectively (FIG. 14A-B).

aged WT mice = assay: Novel Object Recognition test in aged WT mice with ICV infusion
Method: FIG. 15. Osteocalcin improves hippocampal function in aged wild-type (WT) mice. Constant and novel object investigation in the Novel Object Recognition test in 17 month old mice treated for 1 month with vehicle or 10 ng/hr recombinant uncarboxylated osteocalcin.
ICV pumps delivering (10 ng/hr) recombinant uncarboxylated full-length mouse osteocalcin were implanted in 16 month old WT mice. After an infusion period of one month, the mice were subjected to a modified version of the Novel Object Recognition test, to assay memory and hippocampal function. Briefly, mice were given five 5 minute exposures, with 3 minute resting intervals between exposures, to a novel arena containing two objects. During exposures 1-4, mice were habituated to these two objects, which elicited equal amounts of exploration. In the fifth exposure, one of the objects was replaced with a novel object.

[5] = mini-pumps 90 ng/hour for 28 days, 9 month old mice
[6] = 3 or 10 ng/hour ICV for one month

uncarboxylated osteocalcin: Recombinant uncarboxylated mouse osteocalcin, bacterially produced, purified on glutathione beads and cleaved from the GST subunit by thrombin (YLGASVPSPDPLEPTREQCELNPACDELSDQYGLKTAYKRIYGITI)
increase of time and distance run on the treadmill before exhaustion (WT mice [1]; 3 month-old WT mice, single intraperitoneal injection 100 ng/g of body weight immediately before exercise): over 20% | muscle function / exercise capacity of young and old WT mice (WT mice [1]; listed as Osteocalcin): increases | muscle function / exercise capacity of young and old WT mice (WT mice [1]; listed as osteocalcin): can improve | time and distance run / exercise capacity of older mice (WT mice [1]; 12 and 15 month-old mice, 500 ng/g of body weight injected prior to running): the exercise capacity of 3 month-old mice; also recorded: the same time and distance as 3 month-old untreated mice; also recorded: run like young mice | time and distance run on the treadmill before exhaustion (WT mice [1]; [5]): significant increase | increase of distance run (WT mice [1]; wild-type mice, simple injection while they run on a treadmill): 20% | exercise capacity of young mice (WT mice [1]; young (3 month-old) WT mice, exogenous osteocalcin): increases; also recorded: sufficient to increase | circulating osteocalcin levels ([2]; 3 month-old WT mice, single i.p. injection 100 ng/g): increased | circulating osteocalcin levels [2, 5]: increased | leakage of the centrally delivered hormone into the general circulation [3]: no leakage | exploration of the lit compartment (D/LT) (WT mice [4]; [6]): increase | exploration of the open arms (EPMT) (WT mice [4]; [6]): increase | anxiety-like behavior (WT mice [4]; 3 or 10 ng/hour ICV for one month, WT 2-month old mice): decrease | cognitive function (WT mice [4]; adult WT mice, ICV 3, 10, 30 ng/hour (FIG. 14 title)): improves | time exploring the novel object (aged WT mice; 10 ng/hr ICV for one month, 16 month old WT mice, versus vehicle alone): less time | discrimination between the novel and constant objects (aged WT mice; 10 ng/hr ICV for one month, aged mice): able to discriminate | hippocampal function (aged WT mice; aged WT mice (FIG. 15 title)): improves
